This data set in a line: Storage of honey / cannabis extract blends at room temperature, cannabinoid content after storage (conversion). In kind it is physicochemical. Here is the method:
Cannabis plants of various strains were extracted using ethanol at ethanol to plant material weight/weight ratio of 8 to 1 for 30 minutes. Ethanol was removed from the extracts by evaporation under reduced pressure and the desolventized extracts were treated at 120° C. to reach complete decarboxylation. The cannabinoids content in each of the formed extracts was analyzed using HPLC.
Pure honey samples were blended with water and with the cannabis extracts to form what looked to the eye as homogeneous blends. Comparative blends were prepared by blending honey samples with extracts, but with no water addition. Cannabinoids concentrations in the blends were calculated, using the extracts compositions and the dilution by honey and water.
The blends were stored at room temperature for different durations. Then samples were taken and analyzed for cannabinoids content.

The mark [1] stands for this setting: blend of 30 gr honey + 10 gr water + extract, 11 days.
Setting [2] is: blend of 30 gr honey + 10 gr water + extract, glucose 64 %, 11 days, initial (calculated) THC 752 ppm, CBD 749 ppm.
The mark [3] stands for this setting: comparative blend of 30 gr honey + extract, no water, glucose 85 %, 18 days, initial (calculated) CBD 1150 ppm, THC 1050 ppm.

Take `CCCCCc1cc(O)c2c(c1)OC(C)(C)[C@@H]1CCC(C)=C[C@@H]21` [THC, tetrahydrocannabinol]: the Conversion under setting [1] was determined as 45. Further, the Concentrations after storage under setting [2] is 414 and the Concentrations after storage under setting [3] is on record as 1047. The “Conversion of THC compared with CBD” value (water-diluted honey blends, 11 days) is “greater than that of CBD”.
Consider `C=C(C)[C@@H]1CCC(C)=C[C@H]1c1c(O)cc(CCCCC)cc1O` [CBD, cannabidiol], for which, under setting [1], the Conversion was determined as 27. Besides, the Concentrations after storage reads like this: under setting [2], 547; under setting [3], 1148.

The values are drawn from patent US11839601B2, “Cannabis-enriched enzymatically treated therapeutic composition” (priority 2016, dated 2023).
